Patent US20020091086A1, “Peptides that block viral infectivity and methods of use thereof” (priority 1999, published 2002)
Peptide text beside a SMILES is read from it.

How the values were obtained:
HIV-1 = details: Experiment 6; Day 7 HIV-1; 100 μM; HUT78 cells
Procedure: In experiment 6 (Table 7 and FIG. 1), approximately 200,000 HUT78 cells were infected with HIV-1 at 25 TCID50 to test the inhibitory effect of GPG-NH2, RQG-NH2, KQG-NH2, ALG-NH2, GVG-NH2, VGG-NH2, ASG-NH2, SLG-NH2, and SPT-NH2. The HUT cells were resuspended in lml of RPMI 1640 medium supplemented with 10% (v/v) heat-inactivated fetal bovine serum (FBS, GIBCO), penicillin (100 u/ml), streptomycin (100 u/ml) and Polybrene (Sigma, 2 μg/ml) with or without the presence of the different small peptides (100 μM) mentioned above. Thereafter, the HIV-1 virus was added at 25 TCID50 in a volume of 20 μl. Cells were incubated with the virus at 37° C. for one hour and, subsequently, the cells were pelleted at 170×g for seven minutes. The cells were then washed three times in RPMI medium without peptides at room temperature by cell sedimentation at 170×g for seven minutes, as above. After the final wash, the cells were resuspended in RPMI culture medium containing the peptides in 24-well plate (Costar corporation) and were kept at 37° C. in 5% CO2 with humidity. Culture supernatants were collected when medium was changed at day 4, 7, and 11 post infection and viral p24 production was monitored by using an HIV-1 p24 ELISA kit (Abbott Laboratories, North Chicago, USA).

[1] = storage stability of capsules; assay type: physicochemical; details: Five-hundred milligram capsules; stored at 4° C.
Text: Compositions of the peptide agents suitable for gastrointestinal administration include, but not limited to, pharmaceutically acceptable powders, pills or liquids for ingestion and suppositories for rectal administration. Due to the most common routes of HIV infection and the ease of use, gastrointestinal administration, particularly oral, is the preferred embodiment of the present invention. […] As previously shown in other virus-host systems, specific antiviral activity of small peptides can be detected in serum after oral administration. (Miller et al., Appl. Microbiol., 16:1489 (1968)). Since small peptides apparently evade degradation by the patient's digestive system, they are ideal for oral administration.

[2] = stability in human plasma by thin layer chromatography; assay type: in vitro ADME; details: 37° C.; 30 minutes, two hours, eight hours
Procedure: The stability of GPG-NH2 in human plasma was also assessed chemically by thin layer chromatography (TLC). (See FIG. 7). In this experiment, ^14C GPG-NH2 was incubated with human plasma at 37° C. for 30 minutes, two hours, or eight hours and then the proteins were separated by TLC and were visualized by exposure of the chromatograph to autoradiography film. As shown in FIG. 7 (lanes Hp0, Hp0.5, Hp2, and Hp8), a slight shift in mobility of the small peptide was observed. […] Mass-spectrometry analysis (electrospray analysis) of the TLC spots verified that all spots, including the spot with increased mobility, were GPG-NH2.

polio viruses = assay type: cell-based
various cell lines = assay: ratio of CC50/IC50 in vitro; assay type: cell-based
Procedure: (§1) The in vitro 50% cytotoxic concentrations (CC50) of various cell lines was also assessed. Accordingly, different concentrations of GPG-NH2, up to 40 mM, was supplemented into the medium culture of T-cell lines HUT78, H9, CEM-SS, MT-2 and (non) induced ACH-2, as well as, the macrophage derived cell lines […], THP-1 and (non) induced U-1 cells. After 3 days of incubation, the number of cells were counted.

CEM-SS = assay: cytotoxicity, cell counting; details: 40 mM, 3 days
Procedure: as §1

THP-1 = assay: cytotoxicity, cell counting; details: 40 mM, 3 days
Procedure: as §1

H9 = assay: cytotoxicity, cell counting; details: 40 mM, 3 days
Procedure: as §1

HIV-1Bru wild-type = assay: infectivity in MT-2 cells, p24 ELISA, wild-type; assay type: cell-based
Procedure: Accordingly, the ability of GPG-NH2 to inhibit the infectivity of wild-type and V3-loop deletion mutants (GPG domain) in MT-2 cells was determined. In these experiments, approximately 200,000 MT-2 cells were infected with HIV-1Bru wild-type and GPG-deleted mutants mp8 and mp10 at 25 TCID50 to test the inhibitory effect of GPG-NH2 The MT-2 cells were resuspended in 1 ml of RPMT 1640 medium supplemented with 10% (v/v) heat-inactivated fetal bovine serum (FBS, GIBCO), penicillin (100μ/ml), streptomycin (100μ/ml) and Polybrene (Sigma 2 μg/ml) with or without the presence of GPG-NH2 at concentration 20 of μM and 100 μM. Thereafter, viruses were added at 25 TCID50 in a volume of 20-30 μl. Cells were incubated with virus at 37° C. for 16 hr then loosely pelleted by centrifugation at 170×g for 7 minutes. The cells were then washed three times in RPMI medium without peptides at room temperature by cell sedimentation at 170×g for 7 minutes as above. After the final wash, the cells were resuspended in RPMI culture medium in 24-well plate (Costar corporation) then kept at 37° C. in 5% CO2 with humidity. Culture supernatants were collected when medium was changed at day 4, 7, 11 and 14 post infection. To monitor the replication of virus, HIV-1 p24 antigen protein in the supernatants from day 7 and 14 was assayed by a ELISA kit (Abbott Laboratories) which has a linear dose-response range from 20 pg to 640 pg of p24 per ml and the p24 amount can be determined with aid of the regression line.

In the case of NCC(=O)N1CCC[C@H]1C(=O)NCC(N)=O [GPG-NH2, glycyl-prolyl-glycine amide] (H-Gly-Pro-Gly-NH2), the “p24” value (HIV-1) was 560 pg/mL, the “reduction (%)” value (HIV-1) was 97% and the stability on storage [1] was no less than 12 months. The “TLC mobility after incubation in human plasma” value [2] was “no further change in mobility was observed at up to 8 hours”, the “inhibition of polio virus” value (polio viruses) was “failed inhibit either influenza or polio viruses” and the “ratio of CC50/IC50 in vitro” value (various cell lines) was > 10^4. For the same compound, the “decrease in cell number” value (CEM-SS) was “less than 20%”, the “decrease in cell number” value (THP-1) was “less than 20%” and the “decrease in cell number” value (H9) was “less than 20%”. For the same compound, the p24 (HIV-1Bru wild-type; GPG 20 μM, Day 7, WT) was 23900 pg/mL, the reduction (%) (HIV-1Bru wild-type; GPG 20 μM, Day 7, WT) was 29% and the p24 (HIV-1Bru wild-type; GPG 20 μM, Day 14, WT) was 223000 pg/mL. The reduction (%) (HIV-1Bru wild-type; GPG 20 μM, Day 14, WT) was 38%, the p24 (HIV-1Bru wild-type; GPG 100 μM, Day 7, WT) was 3390 pg/mL and the reduction (%) (HIV-1Bru wild-type; GPG 100 μM, Day 7, WT) was 90%. It also gave a p24 (HIV-1Bru wild-type; GPG 100 μM, Day 14, WT) of 181000 pg/mL and a reduction (%) (HIV-1Bru wild-type; GPG 100 μM, Day 14, WT) of 49%.
